Tested on: GNS166 cells
Assay: Microarray whole-transcriptome gene expression analysis
Format: cell-based, human
Method: Whole-transcriptome analysis was performed from 300 ng of RNA using HuGene-2_0-st-v1 expression array (Affymetrix), which covers 48,226 transcripts. Raw data were first checked for quality purposes through the Affymetrix® Expression Console™ Software v1.4.1 and TAC software v4.0. Then, data were normalized using the Robust Multi-array Average (RMA) and analyzed by Limma tool. Probesets with FDR-corrected p-values smaller than 0.05 were selected. Functional enrichment on Gene Ontology (GO) biological processes was performed on a smaller subset of the differentially expressed genes (corrected p-value < 0.001) by means of Broad Institute GSEA. […] The data that support this study have been deposited in NCBI´s Gene Expression Omnibus and are accessible through GEO series accession number GSE143887.

[1] = sheet DMSO-SAHA_DOWN, microarray

SMILES: O=C(CCCCCCC(=O)Nc1ccccc1)NO [SAHA, Suberoylanilide hydroxamic acid]
- logFC ZNF85 (DMSO vs SAHA, downregulated, transcript TC1900007502.hg.1): -1.299
- logFC ZNF254 (DMSO vs SAHA, downregulated, transcript TC1900007622.hg.1): -1.436
- logFC AXL (DMSO vs SAHA, downregulated, transcript TC1900008143.hg.1): -2.335
- logFC KEAP1 (DMSO vs SAHA, downregulated, transcript TC1900009630.hg.1): -1.437
- logFC EMP3 (DMSO vs SAHA, downregulated, transcript TC1900011774.hg.1): -1.798
- logFC UBE2C (DMSO vs SAHA, downregulated, transcript TC2000007503.hg.1): -1.95
- logFC JPH2 (DMSO vs SAHA, downregulated, transcript TC2000009178.hg.1): -1.382
- logFC ZFP64 (DMSO vs SAHA, downregulated, transcript TC2000009469.hg.1): -1.251
- logFC AURKA (DMSO vs SAHA, downregulated, transcript TC2000009550.hg.1): -1.686
- logFC UCKL1 (DMSO vs SAHA, downregulated, transcript TC2000009848.hg.1): -1.222
- logFC MX1 (DMSO vs SAHA, downregulated, transcript TC2100007208.hg.1): -1.686
- logFC COL6A1 (DMSO vs SAHA, downregulated, transcript TC2100007446.hg.1): -1.16
- logFC SUMO3 (DMSO vs SAHA, downregulated, transcript TC2100008385.hg.1): -1.431
- logFC TRIOBP (DMSO vs SAHA, downregulated, transcript TC2200007313.hg.1): -1.456
- logFC MICALL1 (DMSO vs SAHA, downregulated, transcript TC2200007324.hg.1): -1.322
- logFC ZC3H7B (DMSO vs SAHA, downregulated, transcript TC2200007467.hg.1): -1.779
- logFC GTSE1 (DMSO vs SAHA, downregulated, transcript TC2200007662.hg.1): -1.615
- logFC TXNRD2 (DMSO vs SAHA, downregulated, transcript TC2200008001.hg.1): -1.47
- logFC PATZ1 (DMSO vs SAHA, downregulated, transcript TC2200008477.hg.1): -1.5057
- logFC NDUFA6 (DMSO vs SAHA, downregulated, transcript TC2200008859.hg.1): -1.148
- logFC APOBEC3B (DMSO vs SAHA, downregulated, transcript TC2200009270.hg.1): -1.723
- logFC APOBEC3C (DMSO vs SAHA, downregulated, transcript TC2200009271.hg.1): -1.685
- logFC RBX1 (DMSO vs SAHA, downregulated, transcript TC2200009278.hg.1): -1.233
- logFC TRMU (DMSO vs SAHA, downregulated, transcript TC2200009288.hg.1): -1.487
- logFC KIF15 (DMSO vs SAHA, downregulated, transcript TSUnmapped00000255.hg.1): -1.857
- logFC KIF15 (DMSO vs SAHA, downregulated, transcript TSUnmapped00000627.hg.1): -1.713
- logFC AES (transcript TC1900009272.hg.1) [1]: -1.167
- logFC APOBEC3G (transcript TC2200009274.hg.1) [1]: -1.162
- logFC ATF7 (transcript TC1200010809.hg.1) [1]: -0.8995
- logFC ATG4D (transcript TC1900006989.hg.1) [1]: -0.9381
- logFC ATP5G2 (transcript TC1200012798.hg.1) [1]: -0.8974
- logFC ATXN10 (transcript TC2200007626.hg.1) [1]: -0.8219
- logFC AVEN (transcript TC1500008971.hg.1) [1]: -1.4
- logFC B4GALT2 (transcript TC0100008082.hg.1) [1]: -1.044
- logFC BORCS7-ASMT (transcript TC1000012497.hg.1) [1]: -1.471
- logFC C1QBP (transcript TC1700012341.hg.1) [1]: -0.864
- logFC CARD8 (transcript TC1900011061.hg.1) [1]: -1.473
- logFC CD109 (transcript TC0600008539.hg.1) [1]: -1.058
- logFC CDC25B (transcript TC2000006559.hg.1) [1]: -1.166
- logFC COMT (transcript TC2200006623.hg.1) [1]: -1.056
- logFC CXCL14 (transcript TC0500012107.hg.1) [1]: -1.597
- logFC DENND2A (transcript TC0700012813.hg.1) [1]: -1.223
- logFC EOGT (transcript TC0300011448.hg.1) [1]: -1.387
- logFC FAM65B (transcript TC0600014247.hg.1) [1]: -1.186
- logFC FAM83D (transcript TC2000007341.hg.1) [1]: -1.0787
- logFC FBXO32 (transcript TC0800011683.hg.1) [1]: -1.239
- logFC FHL2 (transcript TC0200013750.hg.1) [1]: -1.323
- logFC GYG1 (transcript TC0300009126.hg.1) [1]: -0.8272
- logFC H2AFY2 (transcript TC1000007913.hg.1) [1]: -1.438
- logFC HGSNAT (transcript TC0800007460.hg.1) [1]: -1.179
- logFC HIST1H1E (transcript TC0600007273.hg.1) [1]: -0.9296
- logFC HIST1H2AK (transcript TC0600011228.hg.1) [1]: -1.094
- logFC HIST1H3G (transcript TC0600011142.hg.1) [1]: -1.091
- logFC HIST2H2AB (transcript TC0100015711.hg.1) [1]: -1.264
- logFC HMGB2 (transcript TC0400012432.hg.1) [1]: -1.248
- logFC HNF4G (transcript TC0800008002.hg.1) [1]: -1.665
- logFC HOXB6 (transcript TC1700012433.hg.1) [1]: -0.9482
- logFC HOXB7 (transcript TC1700012434.hg.1) [1]: -1.178
- logFC HSF2BP (transcript TC2100008306.hg.1) [1]: -1.094
- logFC KAT7 (transcript TC1700008216.hg.1) [1]: -0.9549
- logFC KIF15 (transcript TSUnmapped00000127.hg.1) [1]: -1.52
- logFC KIF15 (transcript TSUnmapped00000190.hg.1) [1]: -1.209
- logFC KIF15 (transcript TSUnmapped00000242.hg.1) [1]: -1.3548
- logFC KPNA2 (transcript TC1700008719.hg.1) [1]: -0.848
- logFC KRTCAP2 (transcript TC0100018498.hg.1) [1]: -0.9489
- logFC LOXL1 (transcript TC1500007829.hg.1) [1]: -1.906
- logFC LRRC41 (transcript TC0100014050.hg.1) [1]: -1.4599
- logFC MCPH1 (transcript TC0800006557.hg.1) [1]: -1.179
- logFC MRPL15 (transcript TC0800007653.hg.1) [1]: -1.399
- logFC MSRA (transcript TC0800006697.hg.1) [1]: -0.9684
- logFC MYBL2 (transcript TC2000007438.hg.1) [1]: -1.297
- logFC NCAPG2 (transcript TC0700013290.hg.1) [1]: -1.083
- logFC NFKB1 (transcript TC0400008271.hg.1) [1]: -1.316
- logFC NQO1 (transcript TC1600010732.hg.1) [1]: -1.465
- logFC PKNOX1 (transcript TC2100007278.hg.1) [1]: -1.264
- logFC PRRC2A (transcript TC0600007599.hg.1) [1]: -0.9194
- logFC PTPRE (transcript TC1000009296.hg.1) [1]: -0.9151
- logFC PTRHD1 (transcript TC0200011990.hg.1) [1]: -0.8388
- logFC RHNO1 (transcript TC1200012573.hg.1) [1]: -1.078
- logFC RUNX2 (transcript TC0600008146.hg.1) [1]: -1.088
- logFC SAMD9L (transcript TC0700011797.hg.1) [1]: -1.884
- logFC SCG2 (transcript TC0200015865.hg.1) [1]: -0.9206
- logFC SLC47A2 (transcript TC1700010035.hg.1) [1]: -1.04
- logFC SMARCB1 (transcript TC2200006862.hg.1) [1]: -1.487
- logFC TAPBP (transcript TC0600011536.hg.1) [1]: -0.9356
- logFC TAS2R13 (transcript TC1200009921.hg.1) [1]: -1.256
- logFC TFDP1 (transcript TC1300008144.hg.1) [1]: -0.8938
- logFC TK2 (transcript TC1600011551.hg.1) [1]: -1.009
- logFC TNFRSF12A (transcript TC1600006652.hg.1) [1]: -0.9964
